Assay results taken from ChEMBL document CHEMBL5346973 (J Med Chem, 2023).
Where a SMILES comes first, the peptide text is derived from it.

How the values were obtained:
[1] = target: Nicotinic acetylcholine receptor alpha9/alpha10 (Rattus norvegicus, UniProt P43144+Q9JLB5); assay: Antagonist activity at rat alpha9alpha10 nACh receptor expressed in Xenopus oocyte assessed as inhibition of acetylcholine-induced response at -70 mV holding potential by voltage-clamp based electrophysiological assay; format: cell-based
[2] = target: Neuronal acetylcholine receptor subunit alpha-7 (Rattus norvegicus, UniProt Q05941); assay: Antagonist activity at rat alpha7 nACh receptor expressed in Xenopus oocyte assessed as inhibition of acetylcholine-induced response at -70 mV holding potential by voltage-clamp based electrophysiological assay; format: cell-based
Sequence of Neuronal acetylcholine receptor subunit alpha-7 (Q05941 whole entry): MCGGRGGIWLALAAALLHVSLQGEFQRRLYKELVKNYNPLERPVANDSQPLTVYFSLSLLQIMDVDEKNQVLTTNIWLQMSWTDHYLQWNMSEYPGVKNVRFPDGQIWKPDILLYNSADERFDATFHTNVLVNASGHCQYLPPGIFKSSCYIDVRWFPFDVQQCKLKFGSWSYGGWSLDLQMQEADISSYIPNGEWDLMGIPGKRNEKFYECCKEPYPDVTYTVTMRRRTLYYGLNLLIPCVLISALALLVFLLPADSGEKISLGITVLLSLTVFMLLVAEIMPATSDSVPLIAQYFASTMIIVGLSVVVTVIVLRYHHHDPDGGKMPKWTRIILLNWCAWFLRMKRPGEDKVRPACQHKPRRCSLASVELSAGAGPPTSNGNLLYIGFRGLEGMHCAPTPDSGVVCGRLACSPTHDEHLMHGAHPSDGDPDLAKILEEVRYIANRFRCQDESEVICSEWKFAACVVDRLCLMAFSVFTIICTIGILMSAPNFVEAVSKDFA

Sequence of Nicotinic acetylcholine receptor alpha9/alpha10 (P43144 whole entry): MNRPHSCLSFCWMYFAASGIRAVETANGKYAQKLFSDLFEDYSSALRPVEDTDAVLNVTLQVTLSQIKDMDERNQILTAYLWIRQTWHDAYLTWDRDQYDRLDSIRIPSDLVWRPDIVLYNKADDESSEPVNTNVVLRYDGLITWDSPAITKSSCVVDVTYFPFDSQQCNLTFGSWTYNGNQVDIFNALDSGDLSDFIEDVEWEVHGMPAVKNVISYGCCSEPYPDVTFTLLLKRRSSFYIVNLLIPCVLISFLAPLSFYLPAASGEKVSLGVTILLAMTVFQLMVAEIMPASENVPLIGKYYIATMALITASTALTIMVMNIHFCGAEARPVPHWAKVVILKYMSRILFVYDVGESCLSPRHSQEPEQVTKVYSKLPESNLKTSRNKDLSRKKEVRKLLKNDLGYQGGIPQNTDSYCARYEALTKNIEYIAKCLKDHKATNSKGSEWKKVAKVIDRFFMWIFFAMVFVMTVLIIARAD
Sequence of Nicotinic acetylcholine receptor alpha9/alpha10 (Q9JLB5 whole entry): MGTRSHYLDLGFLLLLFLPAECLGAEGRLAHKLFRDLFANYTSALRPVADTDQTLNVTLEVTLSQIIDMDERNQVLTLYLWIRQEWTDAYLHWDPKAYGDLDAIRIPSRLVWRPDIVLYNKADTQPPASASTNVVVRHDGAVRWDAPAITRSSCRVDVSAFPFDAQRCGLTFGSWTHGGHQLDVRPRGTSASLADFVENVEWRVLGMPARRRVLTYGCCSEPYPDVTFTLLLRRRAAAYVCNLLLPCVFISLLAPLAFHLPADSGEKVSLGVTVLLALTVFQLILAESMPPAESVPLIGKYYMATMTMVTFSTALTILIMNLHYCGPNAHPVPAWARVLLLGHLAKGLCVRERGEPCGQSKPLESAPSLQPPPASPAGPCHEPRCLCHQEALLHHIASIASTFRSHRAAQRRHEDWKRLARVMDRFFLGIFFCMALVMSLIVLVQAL

Structure (SMILES)	IC50 [1] [µM]	IC50 [2] [µM]
CC[C@H](C)[C@@H]1NC(=O)[C@H](CCCNC(=N)N)NC(=O)[C@H](CCCNC(=N)N)NC(=O)[C@@H]2CSSC[C@H](NC(=O)[C@H](Cc3ccc(O)cc3)NC(=O)[C@H](CCCNC(=N)N)NC(=O)CNC(=O)[C@H](CO)NC(=O)[C@H](C)NC(=O)[C@H](CCCNC(=N)N)NC(=O)[C@@H](NC(=O)[C@@H](N)[C@@H](C)O)CSSC[C@@H](C(=O)N[C@H](C(=O)O)C(C)C)NC(=O)[C@H](C)NC(=O)[C@H](CC(=O)O)NC(=O)[C@H]([C@@H](C)O)NC1=O)C(=O)N[C@@H](CCCNC(=N)N)C(=O)N[C@@H](CO)C(=O)N1CCC[C@H]1C(=O)N[C@@H](Cc1ccc(O)cc1)C(=O)N[C@@H](CC(=O)O)C(=O)N[C@@H](CCCNC(=N)N)C(=O)N[C@@H](CCCNC(=N)N)C(=O)N[C@@H](CCCNC(=N)N)C(=O)N[C@@H](CCCNC(=N)N)C(=O)N[C@@H](Cc1ccc(O)cc1)C(=O)N2	0.017	4.1
CC[C@H](C)[C@@H]1NC(=O)[C@H](CCCNC(=N)N)NC(=O)[C@H](CCCNC(=N)N)NC(=O)[C@@H](NC(=O)[C@H](Cc2ccc(O)cc2)NC(=O)[C@H](CCCNC(=N)N)NC(=O)[C@H](CCCNC(=N)N)NC(=O)[C@H](CCCNC(=N)N)NC(=O)[C@H](C)NC(=O)[C@H](CC(=O)O)NC(=O)[C@H](Cc2ccc(O)cc2)NC(=O)[C@@H]2CCCN2C(=O)[C@H](CO)NC(=O)[C@H](CCCNC(=N)N)NC(=O)[C@@H]2CSSC[C@H](NC(=O)[C@H](N)[C@H](C)O)C(=O)N[C@@H](CCCNC(=N)N)C(=O)N[C@@H](CO)C(=O)N[C@@H](CO)C(=O)NCC(=O)N[C@@H](CCCNC(=N)N)C(=O)N[C@@H](Cc3ccc(O)cc3)C(=O)N2)CSSC[C@@H](C(=O)N[C@H](C(=O)O)C(C)C)NC(=O)[C@H](C)NC(=O)[C@H](CC(=O)O)NC(=O)[C@H]([C@@H](C)O)NC1=O	0.032	3.28
CC[C@H](C)[C@@H]1NC(=O)[C@H](CCCNC(=N)N)NC(=O)[C@H](CCCNC(=N)N)NC(=O)[C@@H](NC(=O)[C@H](Cc2ccc(O)cc2)NC(=O)[C@H](CCCNC(=N)N)NC(=O)[C@H](CCCNC(=N)N)NC(=O)[C@H](CCCNC(=N)N)NC(=O)[C@H](CCCNC(=N)N)NC(=O)[C@H](CC(=O)O)NC(=O)[C@H](Cc2ccc(O)cc2)NC(=O)[C@@H]2CCCN2C(=O)[C@H](CO)NC(=O)[C@H](CCCNC(=N)N)NC(=O)[C@@H]2CSSC[C@H](NC(=O)[C@@H](N)[C@@H](C)O)C(=O)N[C@@H](CCCNC(=N)N)C(=O)N[C@@H](CO)C(=O)N[C@@H](CO)C(=O)NCC(=O)N[C@@H](C)C(=O)N[C@@H](Cc3ccc(O)cc3)C(=O)N2)CSSC[C@@H](C(=O)N[C@H](C(=O)O)C(C)C)NC(=O)[C@H](C)NC(=O)[C@H](CC(=O)O)NC(=O)[C@H]([C@@H](C)O)NC1=O (HELM PEPTIDE1{T.C.R.S.S.G.A.Y.C.R.S.P.Y.D.R.R.R.R.Y.C.R.R.I.T.D.A.C.V}$PEPTIDE1,PEPTIDE1,2:R3-9:R3|PEPTIDE1,PEPTIDE1,20:R3-27:R3$$$V2.0)	0.044	1.47
CC[C@H](C)[C@@H]1NC(=O)[C@H](CCCNC(=N)N)NC(=O)[C@H](CCCNC(=N)N)NC(=O)[C@@H]2CSSC[C@H](NC(=O)[C@H](Cc3ccc(O)cc3)NC(=O)[C@H](CCCNC(=N)N)NC(=O)CNC(=O)[C@H](C)NC(=O)[C@H](CO)NC(=O)[C@H](CCCNC(=N)N)NC(=O)[C@@H](NC(=O)[C@@H](N)[C@@H](C)O)CSSC[C@@H](C(=O)N[C@H](C(=O)O)C(C)C)NC(=O)[C@H](C)NC(=O)[C@H](CC(=O)O)NC(=O)[C@H]([C@@H](C)O)NC1=O)C(=O)N[C@@H](CCCNC(=N)N)C(=O)N[C@@H](CO)C(=O)N1CCC[C@H]1C(=O)N[C@@H](Cc1ccc(O)cc1)C(=O)N[C@@H](CC(=O)O)C(=O)N[C@@H](CCCNC(=N)N)C(=O)N[C@@H](CCCNC(=N)N)C(=O)N[C@@H](CCCNC(=N)N)C(=O)N[C@@H](CCCNC(=N)N)C(=O)N[C@@H](Cc1ccc(O)cc1)C(=O)N2 (HELM PEPTIDE1{T.C.R.S.A.G.R.Y.C.R.S.P.Y.D.R.R.R.R.Y.C.R.R.I.T.D.A.C.V}$PEPTIDE1,PEPTIDE1,2:R3-27:R3|PEPTIDE1,PEPTIDE1,9:R3-20:R3$$$V2.0)	0.06	6.33
CC[C@H](C)[C@@H]1NC(=O)[C@H](CCCNC(=N)N)NC(=O)[C@H](CCCNC(=N)N)NC(=O)[C@@H]2CSSC[C@H](NC(=O)[C@H](Cc3ccc(O)cc3)NC(=O)[C@H](CCCNC(=N)N)NC(=O)CNC(=O)[C@H](CO)NC(=O)[C@H](CO)NC(=O)[C@H](CCCNC(=N)N)NC(=O)[C@@H](NC(=O)[C@@H](N)[C@@H](C)O)CSSC[C@@H](C(=O)N[C@@H](C)C(=O)O)NC(=O)[C@H](C)NC(=O)[C@H](CC(=O)O)NC(=O)[C@H]([C@@H](C)O)NC1=O)C(=O)N[C@@H](CCCNC(=N)N)C(=O)N[C@@H](CO)C(=O)N1CCC[C@H]1C(=O)N[C@@H](Cc1ccc(O)cc1)C(=O)N[C@@H](CC(=O)O)C(=O)N[C@@H](CCCNC(=N)N)C(=O)N[C@@H](CCCNC(=N)N)C(=O)N[C@@H](CCCNC(=N)N)C(=O)N[C@@H](CCCNC(=N)N)C(=O)N[C@@H](Cc1ccc(O)cc1)C(=O)N2	0.062	1.6
CC[C@H](C)[C@@H]1NC(=O)[C@H](CCCNC(=N)N)NC(=O)[C@H](CCCNC(=N)N)NC(=O)[C@@H](NC(=O)[C@H](Cc2ccc(O)cc2)NC(=O)[C@H](CCCNC(=N)N)NC(=O)[C@H](CCCNC(=N)N)NC(=O)[C@H](CCCNC(=N)N)NC(=O)[C@H](CCCNC(=N)N)NC(=O)[C@H](CC(=O)O)NC(=O)[C@H](Cc2ccc(O)cc2)NC(=O)[C@@H]2CCCN2C(=O)[C@H](C)NC(=O)[C@H](CCCNC(=N)N)NC(=O)[C@@H]2CSSC[C@H](NC(=O)[C@@H](N)[C@@H](C)O)C(=O)N[C@@H](CCCNC(=N)N)C(=O)N[C@@H](CO)C(=O)N[C@@H](CO)C(=O)NCC(=O)N[C@@H](CCCNC(=N)N)C(=O)N[C@@H](Cc3ccc(O)cc3)C(=O)N2)CSSC[C@@H](C(=O)N[C@H](C(=O)O)C(C)C)NC(=O)[C@H](C)NC(=O)[C@H](CC(=O)O)NC(=O)[C@H]([C@@H](C)O)NC1=O (HELM PEPTIDE1{T.C.R.S.S.G.R.Y.C.R.A.P.Y.D.R.R.R.R.Y.C.R.R.I.T.D.A.C.V}$PEPTIDE1,PEPTIDE1,2:R3-9:R3|PEPTIDE1,PEPTIDE1,20:R3-27:R3$$$V2.0)	0.026	2.06
CC[C@H](C)[C@@H]1NC(=O)[C@H](CCCNC(=N)N)NC(=O)[C@H](CCCNC(=N)N)NC(=O)[C@@H](NC(=O)[C@H](C)NC(=O)[C@H](CCCNC(=N)N)NC(=O)[C@H](CCCNC(=N)N)NC(=O)[C@H](CCCNC(=N)N)NC(=O)[C@H](CCCNC(=N)N)NC(=O)[C@H](CC(=O)O)NC(=O)[C@H](Cc2ccc(O)cc2)NC(=O)[C@@H]2CCCN2C(=O)[C@H](CO)NC(=O)[C@H](CCCNC(=N)N)NC(=O)[C@@H]2CSSC[C@H](NC(=O)[C@@H](N)[C@@H](C)O)C(=O)N[C@@H](CCCNC(=N)N)C(=O)N[C@@H](CO)C(=O)N[C@@H](CO)C(=O)NCC(=O)N[C@@H](CCCNC(=N)N)C(=O)N[C@@H](Cc3ccc(O)cc3)C(=O)N2)CSSC[C@@H](C(=O)N[C@H](C(=O)O)C(C)C)NC(=O)[C@H](C)NC(=O)[C@H](CC(=O)O)NC(=O)[C@H]([C@@H](C)O)NC1=O	0.016	4.62
CC[C@H](C)[C@@H]1NC(=O)[C@H](CCCNC(=N)N)NC(=O)[C@H](CCCNC(=N)N)NC(=O)[C@@H](NC(=O)[C@H](Cc2ccc(O)cc2)NC(=O)[C@H](CCCNC(=N)N)NC(=O)[C@H](CCCNC(=N)N)NC(=O)[C@H](CCCNC(=N)N)NC(=O)[C@H](CCCNC(=N)N)NC(=O)[C@H](CC(=O)O)NC(=O)[C@H](Cc2ccc(O)cc2)NC(=O)[C@@H]2CCCN2C(=O)[C@H](CO)NC(=O)[C@H](CCCNC(=N)N)NC(=O)[C@@H]2CSSC[C@H](NC(=O)[C@@H](N)[C@@H](C)O)C(=O)N[C@@H](CCCNC(=N)N)C(=O)N[C@@H](CO)C(=O)N[C@@H](CO)C(=O)NCC(=O)N[C@@H](CCCNC(=N)N)C(=O)N[C@@H](Cc3ccc(O)cc3)C(=O)N2)CSSC[C@@H](C(=O)N[C@H](C(=O)O)C(C)C)NC(=O)[C@H](C)NC(=O)[C@@H](C)NC(=O)[C@H]([C@@H](C)O)NC1=O	0.013	6.69
CC[C@H](C)[C@@H]1NC(=O)[C@H](CCCNC(=N)N)NC(=O)[C@H](CCCNC(=N)N)NC(=O)[C@@H](NC(=O)[C@H](Cc2ccc(O)cc2)NC(=O)[C@H](CCCNC(=N)N)NC(=O)[C@H](CCCNC(=N)N)NC(=O)[C@H](C)NC(=O)[C@H](CCCNC(=N)N)NC(=O)[C@H](CC(=O)O)NC(=O)[C@H](Cc2ccc(O)cc2)NC(=O)[C@@H]2CCCN2C(=O)[C@H](CO)NC(=O)[C@H](CCCNC(=N)N)NC(=O)[C@@H]2CSSC[C@H](NC(=O)[C@@H](N)[C@@H](C)O)C(=O)N[C@@H](CCCNC(=N)N)C(=O)N[C@@H](CO)C(=O)N[C@@H](CO)C(=O)NCC(=O)N[C@@H](CCCNC(=N)N)C(=O)N[C@@H](Cc3ccc(O)cc3)C(=O)N2)CSSC[C@@H](C(=O)N[C@H](C(=O)O)C(C)C)NC(=O)[C@H](C)NC(=O)[C@H](CC(=O)O)NC(=O)[C@H]([C@@H](C)O)NC1=O	0.018	3.78
CC[C@H](C)[C@@H]1NC(=O)[C@H](C)NC(=O)[C@H](CCCNC(=N)N)NC(=O)[C@@H]2CSSC[C@H](NC(=O)[C@H](Cc3ccc(O)cc3)NC(=O)[C@H](CCCNC(=N)N)NC(=O)CNC(=O)[C@H](CO)NC(=O)[C@H](CO)NC(=O)[C@H](CCCNC(=N)N)NC(=O)[C@@H](NC(=O)[C@@H](N)[C@@H](C)O)CSSC[C@@H](C(=O)N[C@H](C(=O)O)C(C)C)NC(=O)[C@H](C)NC(=O)[C@H](CC(=O)O)NC(=O)[C@H]([C@@H](C)O)NC1=O)C(=O)N[C@@H](CCCNC(=N)N)C(=O)N[C@@H](CO)C(=O)N1CCC[C@H]1C(=O)N[C@@H](Cc1ccc(O)cc1)C(=O)N[C@@H](CC(=O)O)C(=O)N[C@@H](CCCNC(=N)N)C(=O)N[C@@H](CCCNC(=N)N)C(=O)N[C@@H](CCCNC(=N)N)C(=O)N[C@@H](CCCNC(=N)N)C(=O)N[C@@H](Cc1ccc(O)cc1)C(=O)N2	0.185	> 10
